Legend:
[1] = system: human iPS cells (1231A3 strain); experiment: Differentiation of feeder-free cultured human iPS cells into retinal tissue; immunostaining of cell aggregates for Rx and Chx10; type: cell-based; settings: IWR-1e 3 μM in step 2 and step 3, BMP4 1.5 nM from day 3
Method: Human iPS cells (1231A3 strain, obtained from Kyoto University) were cultured under feeder free according to the method described in “Scientific Reports, 4, 3594 (2014)”. As a feeder-free medium, StemFit (registered trade mark) medium (AK03N, manufactured by Ajinomoto Co., Inc.) was used, and as a feeder-free scaffold, Laminin 511-E8 (manufactured by Nippi, Inc.) was used. As a specific maintenance culture operation, subconfluent human iPS cells (1231A3 strain) were first washed with PBS, and dispersed into single cells by using TrypLE Select (manufactured by Life Technologies). Thereafter, the aforementioned human iPS cells dispersed into single cells were seeded in a plastic culture dish coated with Laminin 511-E8, and cultured under feeder-free conditions in StemFit (registered trade mark) medium in the presence of Y27632 (ROCK inhibiting substance, 10 μM). When a 6-well plate (manufactured by Iwaki, for cell culture, culture area 9.4 cm^2) was used as the aforementioned plastic culture dish, the number of plated cells for the aforementioned human iPS cells dispersed into single cells was adjusted to 1.0×10^4. One day after seeding, the entire amount of the medium was changed with StemFit (registered trade mark) medium free of Y27632. Thereafter, once in 1-2 days, the entire amount of the medium was changed with StemFit (registered trade mark) medium free of Y27632. Thereafter, the cells were cultured until 6 days after seeding when they became subconfluent (60% of culture area is covered with cells). As a specific example of step 1 (Precondition) of the present production method, the following operation was performed. Subconfluent human iPS cells (1231A3 strain) were first washed with PBS, and dispersed into single cells by using TrypLE Select (manufactured by Life Technologies). Thereafter, the aforementioned human iPS cells dispersed into single cells were seeded in a plastic culture dish (manufactured by Iwaki) coated with Laminin 511-E8, and cultured under feeder-free conditions in StemFit (registered trade mark) medium in the presence of Y27632 (ROCK inhibiting substance, 10 μM). When a 6-well plate (manufactured by Iwaki, culture area 9.4 cm^2) was used as the aforementioned plastic culture dish, the number of plated cells for the aforementioned human iPS cells dispersed into single cells was adjusted to 1.0×10^4. When a 60 mm dish (manufactured by Iwaki, for cell culture, culture area 21 cm^2) was used as the aforementioned plastic culture dish, the number of plated cells for the aforementioned human iPS cells dispersed into single cells was adjusted to 2.0×10^4. One day after seeding, the entire amount of the medium was changed with StemFit (registered trade mark) medium free of Y27632. […]

[2] = system: human iPS cells (1231A3 strain); experiment: as above; type: cell-based; settings: day 17; for proportion of Rx positive cells in the total cells: BMP4 1.5 nM from day 3
[3] = Precondition SB431542 5 μM + SAG 300 nM in step 1, day 17

O=C(Nc1cccc2cccnc12)c1ccc(N2C(=O)[C@@H]3[C@H](C2=O)[C@@H]2C=C[C@H]3C2)cc1 [IWR-1e, 4-[(3aR,4S,7R,7aS)-1,3,3a,4,7,7a-hexahydro-1,3-dioxo-4,7-methano-2H-isoindol-2-yl]-N-8-quinolinyl-benzamide]
Chx10 positive (strong positive) cells [1, 3]: about 60%
proportion of Rx positive cells in the total cells [1, 3]: about 60%
Chx10 positiveness in the cell aggregate ([1]; no Precondition in step 1, day 17): weak Chx10 positiveness
proportion of Rx positive cells in the total cells ([1]; no Precondition in step 1, day 17 of suspension culture): about 40%
proportion of Rx positive cells in the total cells ([2]; Example 2 Condition 3: Precondition SAG 300 nM in step 1, IWR-1e 3 μM in step 2 and step 3): about 90%
Chx10 status of Rx positive cells (serial sections) ([2]; Example 2 Condition 3: Precondition SAG 300 nM, IWR-1e 3 μM in step 2 and step 3): Chx10 co-positive
proportion of Rx positive cells in the total cells ([2]; Example 2 Condition 5: Precondition SAG 300 nM in step 1, SAG 30 nM in step 2, IWR-1e 3 μM in step 2 and step 3): about 90%
Chx10 status of Rx positive cells (serial sections) ([2]; Example 2 Condition 5: Precondition SAG 300 nM, SAG 30 nM in step 2, IWR-1e 3 μM in step 2 and step 3): Chx10 co-positive

CNC1CCC(N(Cc2cccc(-c3ccncc3)c2)C(=O)c2sc3ccccc3c2Cl)CC1 (stereo not shown) [SAG]
proportion of Rx positive cells in the total cells ([2]; Example 2 Condition 2: Precondition SAG 300 nM one day in step 1, no Wnt inhibiting substance, no SAG in step 2): about 40%
Chx10 status of Rx positive cells (serial sections) ([2]; Example 2 Condition 2: Precondition SAG 300 nM, no IWR-1e, no SAG in step 2): Chx10 co-positive
proportion of Rx positive cells in the total cells ([2]; Example 2 Condition 4: Precondition SAG 300 nM in step 1, SAG 30 nM in step 2, no IWR-1e): about 60%
Chx10 status of Rx positive cells (serial sections) ([2]; Example 2 Condition 4: Precondition SAG 300 nM, SAG 30 nM in step 2, no IWR-1e): Chx10 co-positive
neural tissue formation ([2]; Example 2 Conditions 2-5: Precondition treatment with SAG 300 nM in step 1, versus Condition 1 without Precondition (not formed)): a neural tissue was formed

Reference: patent US11371016B2, “Method for producing retinal tissue” (SUMITOMO PHARMA CO., LTD., priority 2016, dated 2022)
